Measured values as given in ChEMBL document CHEMBL1201862, “PubChem BioAssay data set” (2004).
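Interpolation was linear, between the two tested concentrations surrounding the appropriate level; five concentrations were tested over 48 hours in 96-well plates. GI50 is the concentration that inhibits growth by half.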 Activity calls are given as the source filed them. Rule as the data show it: active = GI50 up to about 1.1 µM and inactive = higher.

Assays:
Test in all cases: growth of human tumour cells (NCI), 48 h
786-0 = test system: 786-0
A549 = test system: A549
BT-549 = test system: BT-549
COLO 205 = test system: COLO 205
EKVX = test system: EKVX
HOP-92 = test system: HOP-92
KM12 = test system: KM12
MOLT-4 = test system: MOLT-4
NCI-H460 = test system: NCI-H460
NCI-H522 = test system: NCI-H522
OVCAR-3 = test system: OVCAR-3
PC-3 = test system: PC-3
RPMI-8226 = test system: RPMI-8226
SK-MEL-28 = test system: SK-MEL-28
SK-MEL-2 = test system: SK-MEL-2
SK-MEL-5 = test system: SK-MEL-5
SN12C = test system: SN12C
SW-620 = test system: SW-620
UO-31 = test system: UO-31
OVCAR-4 = test system: OVCAR-4

Measured: GI50

O=C(Nc1ccccc1C(=O)O)/C(=C/c1ccccc1)NC(=O)c1ccccc1
inactive: 786-0 > 100 µM | A549 > 100 µM | BT-549 > 100 µM | COLO 205 > 100 µM | EKVX > 100 µM | HOP-92 > 100 µM | KM12 > 100 µM | MOLT-4 > 100 µM | NCI-H460 > 100 µM | NCI-H522 > 100 µM | OVCAR-3 > 100 µM | PC-3 > 100 µM | RPMI-8226 > 100 µM | SK-MEL-28 > 100 µM | SK-MEL-2 > 100 µM | SK-MEL-5 > 100 µM | SN12C > 100 µM | SW-620 > 100 µM | UO-31 > 100 µM

NS(=O)(=O)c1ccc(/N=N/c2ccc(O)c(O)c2)cc1
inactive: 786-0 12.4 µM | A549 20.3 µM | BT-549 2.58 µM | COLO 205 20.7 µM | EKVX 46.2 µM | HOP-92 23.7 µM | KM12 11.7 µM | MOLT-4 3.79 µM | NCI-H460 19.9 µM | NCI-H522 1.6 µM | OVCAR-3 24.3 µM | OVCAR-4 5.98 µM | PC-3 20.6 µM | RPMI-8226 10.7 µM | SK-MEL-28 18.1 µM | SK-MEL-2 17.2 µM | SK-MEL-5 6.19 µM | SN12C 10.4 µM | SW-620 7.89 µM | UO-31 11.2 µM

Cc1cc(Nc2ccc(S(=O)(=O)O)cc2)c2ccccc2n1
inactive: 786-0 > 100 µM | A549 > 100 µM | BT-549 > 100 µM | COLO 205 > 100 µM | EKVX > 100 µM | HOP-92 > 100 µM | KM12 > 100 µM | MOLT-4 > 100 µM | NCI-H522 > 100 µM | OVCAR-3 > 100 µM | OVCAR-4 > 100 µM | PC-3 > 100 µM | RPMI-8226 > 100 µM | SK-MEL-28 > 100 µM | SK-MEL-2 > 100 µM | SK-MEL-5 > 100 µM | SN12C > 100 µM | SW-620 > 100 µM | UO-31 > 100 µM

CN(N=O)c1ccc(/C=C/c2ccnc3ccccc23)cc1
inactive: 786-0 46.5 µM | A549 41.6 µM | BT-549 > 100 µM | COLO 205 39.3 µM | EKVX 26.4 µM | HOP-92 > 100 µM | KM12 93.5 µM | MOLT-4 34 µM | NCI-H460 34.2 µM | NCI-H522 46.6 µM | OVCAR-3 95.1 µM | OVCAR-4 > 100 µM | PC-3 76.4 µM | SK-MEL-28 > 100 µM | SK-MEL-2 > 100 µM | SK-MEL-5 37.1 µM | SN12C 37.6 µM | SW-620 73.3 µM | UO-31 30.4 µM

CC[C@H](C)[C@H](NC(=O)[C@H](Cc1ccc(O)cc1)NCC(F)(F)F)C(=O)OC(C)(C)C
inactive: 786-0 8.15 µM | A549 5.41 µM | BT-549 10.8 µM | COLO 205 8.05 µM | EKVX 6.87 µM | HOP-92 8.99 µM | KM12 7.78 µM | MOLT-4 6.35 µM | NCI-H460 6.22 µM | NCI-H522 7.31 µM | OVCAR-4 5.64 µM | PC-3 6.43 µM | RPMI-8226 6.64 µM | SK-MEL-28 9.38 µM | SK-MEL-2 6.53 µM | SK-MEL-5 7.41 µM | SN12C 8.81 µM | SW-620 9.82 µM | UO-31 7.64 µM

COC(=O)N1C2C(C[C@@]1(C)C(=O)OC)c1ccccc1N2S(=O)(=O)c1ccccc1 (stereo partly specified)
inactive: 786-0 > 100 µM | A549 > 100 µM | BT-549 > 100 µM | COLO 205 > 100 µM | EKVX > 100 µM | HOP-92 > 100 µM | KM12 > 100 µM | MOLT-4 > 100 µM | NCI-H460 > 100 µM | NCI-H522 > 100 µM | OVCAR-3 > 100 µM | OVCAR-4 > 100 µM | PC-3 > 100 µM | RPMI-8226 > 100 µM | SK-MEL-28 > 100 µM | SK-MEL-2 > 100 µM | SK-MEL-5 > 100 µM | SW-620 > 100 µM | UO-31 > 100 µM

C=CC1(CC/C(=C\[N+](=O)[O-])c2ccc(OC)c(OC)c2)OCC(C)(C)CO1
inactive: 786-0 17.1 µM | A549 23.3 µM | BT-549 13.8 µM | COLO 205 18 µM | EKVX 18 µM | HOP-92 18.2 µM | KM12 15.5 µM | MOLT-4 1.46 µM | NCI-H460 18.2 µM | NCI-H522 13.8 µM | OVCAR-3 20.6 µM | OVCAR-4 11.6 µM | PC-3 25.6 µM | SK-MEL-28 19.8 µM | SK-MEL-2 19.1 µM | SK-MEL-5 13.1 µM | SN12C 21 µM | SW-620 26.9 µM | UO-31 15.1 µM

COc1ccc2oc(=N)c(C(N)=S)cc2c1
inactive: 786-0 23.9 µM | A549 32.1 µM | BT-549 18.5 µM | COLO 205 29.8 µM | EKVX 29.6 µM | HOP-92 24 µM | KM12 22.2 µM | MOLT-4 20 µM | NCI-H460 16.9 µM | NCI-H522 17.5 µM | OVCAR-4 31.9 µM | PC-3 27.5 µM | RPMI-8226 21.3 µM | SK-MEL-28 30.4 µM | SK-MEL-2 18.4 µM | SK-MEL-5 13.6 µM | SN12C 27.2 µM | SW-620 25.5 µM | UO-31 19.6 µM

COc1ccc(C(OCC2OC(n3cc(C)c(=O)[nH]c3=O)CC2n2cc(Cn3cc(I)c(=O)[nH]c3=O)nn2)(c2ccccc2)c2ccccc2)cc1 (stereo unspecified)
inactive: 786-0 > 100 µM | A549 > 100 µM | BT-549 > 100 µM | COLO 205 > 100 µM | EKVX > 100 µM | HOP-92 > 100 µM | KM12 14.2 µM | MOLT-4 7.67 µM | NCI-H522 > 100 µM | OVCAR-3 > 100 µM | OVCAR-4 > 100 µM | PC-3 > 100 µM | RPMI-8226 15.2 µM | SK-MEL-28 > 100 µM | SK-MEL-2 > 100 µM | SK-MEL-5 > 100 µM | SN12C > 100 µM | SW-620 > 100 µM | UO-31 > 100 µM

O=C(O)c1ccccc1/C=N/N=C1NCCCCN1
inactive: 786-0 > 100 µM | A549 > 100 µM | BT-549 > 100 µM | COLO 205 > 100 µM | EKVX > 100 µM | HOP-92 > 100 µM | KM12 > 100 µM | MOLT-4 > 100 µM | NCI-H460 > 100 µM | NCI-H522 90.8 µM | OVCAR-3 > 100 µM | OVCAR-4 > 100 µM | PC-3 > 100 µM | RPMI-8226 > 100 µM | SK-MEL-28 > 100 µM | SK-MEL-2 > 100 µM | SK-MEL-5 > 100 µM | SW-620 > 100 µM | UO-31 > 100 µM
